# Measurements from US12516038B2, “Inhibitors of antigen presentation by HLA-DR” (Janssen Pharmaceutica NV, priority 2020, dated 2026).
# Assays:
# HLA-DRB1*0401 = HLA-DRB1*0401 (Homo sapiens (Human), UniProt P01903+P01911, A100K/A169T/DEL228-266/F76Y/I96L/K127E/L162R/M171V/N62H/P40V/Q125Y/R42H/S133A/S149N/S66Y/V115G/V209L/W38E); assay: HLA-DR4 HTRF assay; format: binding; conditions: inhibition of loading of Alexa Fluor 647-labeled Cit-CII peptide onto HLA-DR4 (CLIP cleaved)
# Source text: (§1) The screening was made through two sets of HLA-DR/peptide-dependent assays: a peptide-dependent Homogeneous Time Resolved Fluorescence (HTRF) binding assay followed by an HLA-DR dependent, peptide-specific T cell functional assay (HLA-DR4-restricted peptide-specific T cell-based assay hybridoma assay). The HTRF binding assay was designed to measure the ability of the small molecule to inhibit the loading of a fluorescently labeled high-affinity peptide onto HLA-DR peptide binding groove. The peptide-specific T cell functional assay assesses T cell activation resulting from proper peptide presentation onto HLA-DR expressed on the surface of the antigen-presenting cells to the T cell and is used to screen compounds able to inhibit such HLA-DR/peptide-dependent T cell activation.
# The HLA-DR4 HTRF assay is based on HTRF technology and designed to measure ability of compounds to prevent loading of high-affinity Alexa Fluor 647-labeled Citrullinated Collagen 111236-1249 peptide (named Cit-CII/AF647, aa1236-1249, LQYM-Cit-ADQAAGGLR; Alexa Fluor 647 dye commercially available from Invitrogen) onto HLA-DRB1*0401. The HTRF assay technology is based on the energy transfer between two fluorophores, a donor and an acceptor, when in close proximity. The HLA-DR4 protein construct was uniquely designed for this assay and has (i) the α and […] subunits fused to human Fc chains and (ii) the invariant chain-associated peptide (CLIP peptide, aa85-101), the universal moderate/low-affinity HLA-DR binder, attached to the beta chain through a HRV3C protease-cleavable linker.
# Because of the low stability of peptide free HLA-DR4 heterodimer, the construct was purified and delivered with CLIP peptide attached to the N-terminal of the β chain. The HLA-DR4 heterodimer was pre-treated with 3 μL HRV3C protease (Novagen E71493-3) (˜2 U/μL) per mg of the cleavable protein to cleave CLIP peptide and incubated overnight (>16 hrs) at 4° C. This method yielded at least 80% cleavage and allowed the CLIP peptide to be potentially exchanged with the fluorescently labeled high affinity cit-CII1236-1249 peptide. A batch of […] protein with CLIP cleaved was prepared for multiple experiments and was stable for several months when stored at 4° C.
# In this assay, anti-human Fc antibody labeled with Tb-Cryptate probe was used as the donor (commercially available from Cisbio—PAb Anti-human IgG-Tb Cryptate, Cat #61HFCTAB) and high affinity peptide Citrullinated CII (cit-CII) labeled with Alexa 647 fluorophore was utilized as the acceptor. Inhibitors of the exchange of the pre-cleaved CLIP peptide for the high affinity cit-CII1236-1249 peptide onto HLA-DRB1*04:01 caused a decrease in HTRF signal as measured by the ratio of the 665 nm/620 nm emitted signal. Screening compounds were robotically pre-dispensed (150 nL, Hummingbird, DigiLab/CyBio AG) onto black, round bottom, nontreated, 1536-well assay plates (Corning #3939), were incubated with 3 nM HLA-DR4 (with CLIP cleaved) plus 1 nM Human IgG-Tb (anti-Fc-Tb) Antibody for 45 min prior to addition of 40 nM Cit-CII peptide labeled with Alexa-647. The negative control was DMSO plus 1 nM Human IgG-Tb (anti-Fc-Tb) Antibody, incubated for 45 minutes before addition of 40 nM Cit-CII peptide labeled with Alexa-647. The positive control was DMSO plus 3 nM HLA-DR4 (with CLIP cleaved) plus 1 nM Human IgG-Tb (anti-Fc-Tb) Antibody with 40 nM Cit-CII peptide labeled with Alexa-647 added after a 45-minute incubation. Plates were centrifuged at 1000 rpm for 1 minute and then incubated at 37° C., at 90% relative humidity for 90 minutes. After incubation, plates were read on a spectrophotometer, the Pherastar FS (BMG Labtech), in HTRF mode. The HTRF ratio as well as percent inhibition was calculated. Curve fitting and IC50 calculation for dose response data was performed by Microsoft Excel, 3DX (Janssen proprietary software) or Graphpad Prism (Graphpad Software, San Diego, CA). […]
# [1] = system: HLA-DR4 restricted mouse T cell hybridoma line (DR4.CII.36.8) with HLA-DRB1*04:01-expressing Boleth cells; assay: HLA-DR4-restricted peptide-specific T cell-based assay (hybridoma assay); conditions: Mus musculus, T-cell, 6 h, inhibition of IL-2 production, CII259-273 peptide presented by Boleth cells
# Source text: as §1
# HLA-DR4-Restricted Peptide-Specific T Cell-Based Assay (Hybridoma Assay)
# The hybridoma assay was used to measure compound inhibition of TL-2 production from an HLA-DR4 restricted mouse T cell hybridoma line (DR4.CII.36.8) that was antigen-specific for collagen II259-273 (CII259-273) peptide when presented with an HLA-DR4 expressing Antigen Presenting Cell (APC) cell line (i.e., Boleth).
# To the HLA-DRB1*04:01-expressing B cell line (Boleth cell line from International Histocompatibility Working Group (IHWG), ref #IHW09031) was presented the collagen II 259-273 peptide (CII259-273, GIAGFKGEQGPKGEP) to mouse T cell hybridoma (DR4.CII.36.8 T cell hybridoma; clone 36.8, expressing a CII259-273-specific, HLA-DRB1*04:01-restricted T cell receptor). Upon proper CII259-273 peptide presentation, the T cell hybridoma was activated and thus produced IL-2 cytokine, whose level in the cell culture supernatant was detected using mouse IL-2 AlphaLISA kit (Perkin Elmer, Cat: AL511F).
# This assay was performed in a 384-well plate (polypropylene V-bottom Greiner bio-one, ref #784075) by: (i) pre-incubation of 20 μL of 1.25 million/mL Boleth cells (25,000 cells) resuspended in DMEM/1% fetal calf serum (FCS; Gibco, ref #16140-071) with 20 μL of 2.5× final concentration of compound of interest in DMEM/1% serum/0.75% DMSO at 37° C. for 1 hr in the incubator, then (ii) 10 μL of 5 million/mL (50,000 cells) DR4.CII.36.8 T cell hybridoma cells resuspended in DMEM/1% FCS was added and incubated for 6 h at 37° C. in the incubator. Supernatant was then collected and mouse IL-2 detected using AlphaLISA kit (ref #AL511F). Compounds were tested in duplicate, with 8-point titration. Mean±SD of AlphaLISA units at each compound concentration was used for compound IC50 calculation. The negative control for this experiment was run without peptide stimulation and used a DMSO vehicle wherein no compound of interest was added. The positive control was run with peptide stimulation and used a DMSO vehicle wherein no compound of interest was added. Both the negative and positive controls were run in 8 replicates each. Curve fitting and IC50 calculation for dose response data was performed by GraphPad software 6 or higher (GraphPad Software, San Diego, CA). Dose response data was plotted versus the log of compound concentration and IC50 was determined using 4-parameter logistic (4-PL) curve fitting.
Structure (SMILES),IC50 (HLA-DRB1*0401) [µM],IC50 [1] [µM]
"Cc1cnccc1[C@H](Oc1ccc2c(c1)OCCC2=O)c1ccc(C(N)=O)cc1 (single isomer, unassigned) [Example 21a, (*R)-4-((3-Methylpyridin-4-yl)((4-oxochroman-7-yl)oxy)methyl)benzamide]",1,5.4
"Cc1cnccc1[C@@H](Oc1ccc2c(c1)OCCC2=O)c1ccc(C(N)=O)cc1 (single isomer, unassigned) [Example 21b, (*S)-4-((3-Methylpyridin-4-yl)((4-oxochroman-7-yl)oxy)methyl)benzamide]",0.64,5.4
"COc1cnccc1[C@H](Oc1ccc2c(c1)OCCC2=O)c1ccc(C(N)=O)cc1 (single isomer, unassigned) [Example 23a, (*R)-4-((3-methoxypyridin-4-yl)((4-oxochroman-7-yl)oxy)methyl)benzamide]",0.45,10
"NC(=O)c1ccc([C@@H](Oc2ccc3c(c2)OCCC3=O)c2ccncc2-c2ccccc2)cc1 (single isomer, unassigned) [Example 25a, (*R)-4-(((4-oxochroman-7-yl)oxy)(3-phenylpyridin-4-yl)methyl)benzamide]",0.48,6.4
"NC(=O)c1ccc([C@@H](Oc2ccc3c(c2)OCCC3=O)c2ccncc2N)cc1 (single isomer, unassigned) [Example 27a, (*R)-4-((3-aminopyridin-4-yl)((4-oxochroman-7-yl)oxy)methyl)benzamide]",7.3,13
"NC(=O)c1ccc([C@H](Oc2ccc3c(c2)OCCC3=O)c2ccncc2N)cc1 (single isomer, unassigned) [Example 27b, (*S)-4-((3-aminopyridin-4-yl)((4-oxochroman-7-yl)oxy)methyl)benzamide]",6.4,> 15
"NC(=O)c1ccc([C@@H](Oc2ccc3c(c2)OCCC3=O)c2ccnc(N)c2)cc1 (single isomer, unassigned) [Example 28a, (*R)-4-((2-aminopyridin-4-yl)((4-oxochroman-7-yl)oxy)methyl)benzamide]",1.8,6.9
"NC(=O)c1ccc([C@@H](Oc2ccc3c(c2)OCCC3=O)c2ccc(Cl)cc2)cc1 (single isomer, unassigned) [Example 30a, (*R)-4-((4-Chlorophenyl)((4-oxochroman-7-yl)oxy)methyl)benzamide]",0.93,5.9
"NC(=O)c1ccc([C@H](Oc2ccc3c(c2)OCCC3=O)c2ccc(Cl)cc2)cc1 (single isomer, unassigned) [Example 30b, (*S)-4-((4-Chlorophenyl)((4-oxochroman-7-yl)oxy)methyl)benzamide]",1.2,6.4
"NC(=O)c1ccc([C@@H](Oc2ccc3c(c2)OCCC3=O)c2ccccn2)cc1 (single isomer, unassigned) [Example 32a, (*R)-4-(((4-oxochroman-7-yl)oxy)(pyridin-2-yl)methyl)benzamide]",3.6,8.2
"NC(=O)c1ccc([C@H](Oc2ccc3c(c2)OCCC3=O)c2ccccn2)cc1 (single isomer, unassigned) [Example 32b, (*S)-4-(((4-oxochroman-7-yl)oxy)(pyridin-2-yl)methyl)benzamide]",1.9,> 15
"NC(=O)c1ccc([C@@H](Oc2ccc3c(c2)OCCC3=O)c2ccncn2)cc1 (single isomer, unassigned) [Example 33a, (*R)-4-(((4-Oxochroman-7-yl)oxy)(pyrimidin-4-yl)methyl)benzamide]",0.58,8.7
"NC(=O)c1ccc([C@H](Oc2ccc3c(c2)OCCC3=O)c2ccncn2)cc1 (single isomer, unassigned) [Example 33b, (*S)-4-(((4-Oxochroman-7-yl)oxy)(pyrimidin-4-yl)methyl)benzamide]",0.59,> 15
"Cc1cc([C@@H](Oc2ccc3c(c2)OCCC3=O)c2ccncc2)ccc1C(N)=O (single isomer, unassigned) [Example 35a, (*R)-2-methyl-4-(((4-oxochroman-7-yl)oxy)(pyridin-4-yl)methyl)benzamide]",0.96,> 15
"Cc1cc([C@H](Oc2ccc3c(c2)OCCC3=O)c2ccncc2)ccc1C(N)=O (single isomer, unassigned) [Example 35b, (*S)-2-methyl-4-(((4-oxochroman-7-yl)oxy)(pyridin-4-yl)methyl)benzamide]",0.83,5.2
"Cc1cc(C(N)=O)ccc1[C@@H](Oc1ccc2c(c1)OCCC2=O)c1ccncc1 (single isomer, unassigned) [Example 36b, (*S)-3-methyl-4-(((4-oxochroman-7-yl)oxy)(pyridin-4-yl)methyl)benzamide]",0.57,5.1
"C[C@@H]1CC(=O)c2ccc(O[C@H](c3ccncc3)c3ccc(C(N)=O)cc3)cc2O1 (single isomer, unassigned) [Example 39a, 4-((*S)—(((*R)-2-Methyl-4-oxochroman-7-yl)oxy)(pyridin-4-yl)methyl)benzamide]",1.1,14
"C[C@H]1CC(=O)c2ccc(O[C@H](c3ccncc3)c3ccc(C(N)=O)cc3)cc2O1 (single isomer, unassigned) [Example 39d, 4-((*S)—(((*S)-2-Methyl-4-oxochroman-7-yl)oxy)(pyridin-4-yl)methyl)benzamide]",1,15
